Experimental data as given in US10221129B2, “Inhibitors of human immunodeficiency virus replication” (ViiV HEALTHCARE UK (NO.5) LIMITED, priority 2015, dated 2019).

Assays:
[1] = tested on: recombinant NL4-3 virus (nef section replaced with Renilla luciferase gene) in MT-2 cells; test: HIV cell culture assay (antiviral activity, luciferase readout); format: cell-based
Outline: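 Serial compound dilutions tested in MT-2 cells infected for 4-5 days with 293T-derived NL4-3 virus carrying Renilla luciferase in place of part of nef. Antiviral activity quantified as luciferase activity, read with a live-cell substrate.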

[2] = Compound cytotoxicity, XTT-based colorimetric assay; format: cell-based; conditions: human, uninfected MT2 cells, day 4, XTT
Outline: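 Run under the antiviral-assay protocol but without virus. Viability was read on day 4 and CC50 values were derived from the readout.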

[3] = Renilla, NL43, MT-2 cells infected for 4-5 days with recombinant NL4-3 Renilla luciferase virus

Structure (SMILES)	EC50 [1, 3] [nM]	CC50 at 4 days [2] [µM]	EC50 ([1]; MT-2 cells infected for 4-5 days with recombinant NL4-3 Renilla luciferase virus) [nM]
COc1ccc(N(C)C(=O)[C@H](Cc2ccccc2)NC(=O)NS(=O)(=O)Nc2cccnc2)cc1 [JB-21]	1780	> 100	
COc1ccc(N(C)C(=O)[C@H](Cc2ccccc2)NC(=O)NS(=O)(=O)Nc2cccc(-c3ccccc3)c2)cc1 [CA-37]	1200	> 33.3	
COc1ccc(N(C)C(=O)[C@H](Cc2ccccc2)NC(=O)NS(=O)(=O)Nc2ccc(C(C)=O)cc2)cc1 [CA-19]	120	> 100	
Cc1cc(F)cc(N(C)C(=O)[C@H](Cc2cc(F)cc(F)c2)NC(=O)NS(=O)(=O)N2CCc3cccnc32)c1 [BB-13]	270	89.5	
CN(C(=O)[C@H](Cc1cc(F)cc(F)c1)NC(=O)NS(=O)(=O)N(C)c1cccnc1)c1ccc2scnc2c1 [CA-120]	270	> 100	
COc1ccc(N(C)C(=O)[C@H](Cc2ccccc2)NC(=O)NS(=O)(=O)Nc2ccccc2NC(C)=O)cc1 [CA-42]	4120	> 100	
COc1ccc(N(C)C(=O)[C@H](Cc2ccccc2)NC(=O)NS(=O)(=O)Nc2cccc(NS(C)(=O)=O)c2)cc1 [CA-46]	11600	> 100	
COc1ccc(N(C(=O)[C@H](Cc2cc(F)cc(F)c2)NC(=O)NS(=O)(=O)N2CCc3cccnc32)C2CC2)cc1 [BB-32]	50	62.6	
CN(C(=O)[C@H](Cc1cc(F)cc(F)c1)NC(=O)NS(=O)(=O)N1CCc2cccnc21)c1ccc(OC(F)F)nc1 [GW-13]	60	> 100	
COc1ccc(N(C)C(=O)[C@H](Cc2ccccc2)NC(=O)NS(=O)(=O)n2c(C)cc3ccc(OC)cc32)cc1 [CA-64]	440	62.4	
Cc1ccc2c(n1)N(S(=O)(=O)NC(=O)N[C@@H](Cc1cc(F)cc(F)c1)C(=O)N(C)c1ccc3scnc3c1)CCC2 [VN-12]	10	> 50	
COc1ccc(N(C)C(=O)[C@H](Cc2ccccc2)NC(=O)NS(=O)(=O)N(c2ccccc2)C(C)C)cc1 [CA-25]	1010	> 33.3	
COc1ccc(N(C)C(=O)[C@H](Cc2ccccc2)NC(=O)NS(=O)(=O)Nc2ccccc2C#N)cc1 [CA-6]	380	> 100	
CCCN(C)S(=O)(=O)NC(=O)N[C@@H](Cc1cc(F)cc(F)c1)C(=O)N(C)c1ccc2scnc2c1 [CA-141]	40	> 100	
CN(C(=O)[C@H](Cc1cc(F)cc(F)c1)NC(=O)NS(=O)(=O)NCC1CC1)c1ccc2scnc2c1 [CA-127]	60	> 100	
COc1ccc(N(C)C(=O)[C@H](Cc2ccccc2)NC(=O)NS(=O)(=O)NCc2cnc3ccccc3c2)cc1 [JB-45]	9450	> 50	
COc1ccc(N(C)C(=O)[C@H](Cc2ccccc2)NC(=O)NS(=O)(=O)NCC(=O)N2CCCC2)cc1 [CA-51]	4590	> 100	
CN(C(=O)[C@H](Cc1cc(F)cc(F)c1)NC(=O)NS(=O)(=O)Nc1cccc(Cl)c1)c1ccc2scnc2c1 [CA-116]	60	73.2	
COc1ccc(N(C)C(=O)[C@H](Cc2ccccc2)NC(=O)NS(=O)(=O)NCC(=O)N2CCOCC2)cc1 [CA-59]	6140	> 100	
CN(C(=O)[C@H](Cc1cc(F)cc(F)c1)NC(=O)NS(=O)(=O)N1CCCc2cccnc21)c1ccc2scnc2c1 [VN-9]	10	> 100	
CCOc1ccc(N(CC)C(=O)[C@H](Cc2ccccc2)NC(=O)NS(=O)(=O)N2CCc3cccnc32)cc1 [JB-71]	130	> 33.3	
COc1ccc(N(C)C(=O)[C@H](Cc2ccccc2)NC(=O)NS(=O)(=O)Nc2ccc3[nH]cnc3c2)cc1 [JB-36]	2260	> 100	
CN(C(=O)[C@H](Cc1cc(F)cc(F)c1)NC(=O)NS(=O)(=O)N1CCCC1c1ccccc1)c1ccc2scnc2c1 (single isomer, unassigned) [VN-3]		52.4	850
CN(C(=O)[C@H](Cc1cc(F)cc(F)c1)NC(=O)NS(=O)(=O)N1CCc2cccnc21)c1ccc(C2CC2)cc1 [GW-10]	30	91	
COc1ccc(N(C)C(=O)[C@H](Cc2ccccc2)NC(=O)NS(=O)(=O)Nc2ccc(S(=O)(=O)N3CCOCC3)cc2)cc1 [CA-44]	620	> 100	
COc1ccc(N(C)C(=O)[C@H](Cc2ccccc2)NC(=O)NS(=O)(=O)N(C)Cc2n[nH]c(=O)[nH]2)cc1 [JB-69]	3690	> 100	
CN(C(=O)[C@H](Cc1cc(F)cc(F)c1)NC(=O)NS(=O)(=O)N1CCNC(=O)C1)c1ccc2scnc2c1 [CA-151]	1070	> 100	
COc1ccc(N(C)C(=O)[C@H](Cc2ccccc2)NC(=O)NS(=O)(=O)Nc2ccccc2C(N)=O)cc1 [CA-22]	2510	> 100	
